Read-outs that look alike come from different tables or passages of the source.
Key:
[1] = Plasma, brain and CSF concentrations (PK) in healthy rats after single oral dose; assay type: in vivo, Wistar Han rats; conditions: 15 mg/kg p.o. single dose; for Kp: 15 mg/kg
Experimental: Healthy male Wistar Han rats were treated orally with a single dose of 15 mg/kg Compound of formula (I) (24 rats in total, 3 rats per time-point). Compound of formula (I) was formulated as a suspension in 0.5% methylcellulose with 1% Tween 80 and administered at a concentration of 1.5 mg/mL with a dosing volume of 10 mL/kg.
At designated time-points (0.5; 1; 2; 4; 8; 24; 32; 48 hrs post-dose), the rats were euthanized by carbon dioxide inhalation. Thereafter, blood, CSF, and brain samples were collected as follows. Blood samples were collected by cardiac puncture into K2EDTA containing tubes. The tubes were inverted several times, placed on ice and centrifuged within 30 min of collection (4° C. for 5 min at 6000 rpm) to obtain plasma. The plasma samples were snap frozen in dry ice and stored at −80° C. until analysis. The CSF samples were collected by using a scalp-needle to puncture the foramen magnum. The CSF samples were acidified with 10% formic acid (final sample concentration of 0.5% formic acid) and stored in −80° C. until further analysis. The brain was collected, weighed and snap frozen in dry ice until further analysis. To obtain brain homogenates, firstly water was added to each brain (brain weight:water volume=1:4) then the brain was homogenized with a H-speed dispersator (time procedure: homogenizing for 10 s and interval of 10 s per time, total 3-5 times; cleaning procedure for dispersator: Water-Methanol-Ethanol-Water, 10 s each). The brain homogenate samples were transferred to individual tubes and stored at −80° C. prior to analysis.
The samples were analyzed as follows. For each analytical batch of plasma and brain samples, the standard and quality control (QC) samples were freshly prepared in blank male Wistar Han plasma (with K2EDTA anticoagulant) and brain homogenate. Acidified (containing 0.5% formic acid) artificial CSF was used as standard and quality control for the CSF samples. Additionally, one set of blank male Wistar Han CSF was included as QC sample.
To an aliquot of each standard, QC, control blank and study samples, internal standard (^13CD6-Compound of formula (I)) in methanol/acetonitrile (1:1, v/v) was added. The samples were mixed for 1 minute and centrifuged at 4000 rpm at 4° C. for 15 minutes. Supernatants were transferred and diluted in MeOH/water (1:1, v/v, with 0.1% FA) prior to LC-MS/MS injection.
Chromatographic separation was achieved on a Shimadzu LC-20AD (for plasma and brain samples) or Shimadzu LC-30AD (for CSF samples) using a Kinetex 2.6μ C18 100A column (50 mm*3.00 mm; for plasma and brain samples) or an ACE 5 C4 column (50 mm*2.1 mm; for CSF samples). The following conditions were applied: flow rate: 0.7 mL/min; run time: 3.0 min; mobile phase: A: 5 mM NH4OAc (0.1% FA), B: Acetonitrile (0.1% FA).
Detection was accomplished with an AB Sciex 5500 utilizing electrospray MS/MS in positive ion multiple reaction monitoring mode (MRM). The MRM channels were 511.29/98 for Compound of formula (I) and 518.17/102.10 for the internal standard ^13CD6-Compound of formula (I).
The measured plasma, CSF and brain concentrations at each time-point, the nominal sample collection time, and intended dosages were used for pharmacokinetic analysis. The PK parameters of all study compounds were determined by non-compartmental analysis using WinNonlin Version 8.0 (Pharsight).

[2] = CSF and matching plasma concentrations in glioma patients (clinical trial Arms A and B); assay type: in vivo, human
Experimental: In the clinical trial described in Example 9, cerebrospinal fluid (CSF) stabilized with formic acid 0.5% and matching plasma samples collected on K2 EDTA were drawn from 3 patients of Arm A on day 11 of cycle 1 (i.e. 2 patients at 150 mg and 1 patient at 200 mg of Study drug) and 1 patient of Arm B on Week 3 day 1 (i.e. Day 15 after daily doses of Study drug at 90 mg).
Study drug (parent, active moiety) and its active metabolite N^32-desmethyl-Study drug were measured using LC-MS/MS methods. Results were provided in ng per mL of plasma or CSF, and then converted to nmol/L using the molecular weights of the Study drug (511.45 g/mol) and N^32-desmethyl-Study drug (497.42 g/mol).
Thus, the unbound (or free fraction) of the Study Drug and the N^32-desmethyl-Study drug are calculated.
In CSF, the total protein concentration varies between 0.2% and 0.5% of the total protein concentration of blood (H. Reiber, Clinica Chimica Acta, 2001; Schilde L M et al., PLoS ONE, 2018), therefore the concentration measured in CSF essentially corresponds to the free fraction of the compounds.
For each of the 4 patients, the ratio CSF/plasma of a given compound (Study drug parent or metabolite) was calculated using the CSF concentration of said compound (in nmol/L) and the unbound or free fraction of said compound in plasma (in nmol/L).

[3] = Free fraction in rat plasma (separate experiment, not shown); assay type: in vitro ADME

Cc1cc(Nc2ncc3c(n2)N(C)CN(c2c(Cl)cccc2Cl)C3=O)ccc1C1CCN(C)CC1 [Compound of formula (I)]
AUCInf, brain [1]: 8415 ng·h/g
AUCLast, brain [1]: 8383 ng·h/g
Cmax, CSF [1]: 15.6 ng/mL
Cmax, brain [1]: 588 ng/g
AUC(0-inf) ([1]; male, Wistar Han, rat, CSF, po, read-out: AUCInf, CSF): 221 ng·h/mL
AUC(0-t) ([1]; male, Wistar Han, rat, CSF, po, read-out: AUCLast, CSF): 219 ng·h/mL
Kp ([1]; male, Wistar Han, rat, CSF/unbound plasma, oral, unbound plasma from free fraction 7.8%, read-out: CSF to unbound plasma ratio based on AUCInf): 0.2
Kp ([1]; male, Wistar Han, rat, CSF/unbound plasma, oral, unbound plasma from free fraction 7.8%, read-out: CSF to unbound plasma ratio based on AUCLast): 0.2
Kp ([1]; male, Wistar Han, rat, CSF/unbound plasma, oral, unbound plasma from free fraction 7.8%, read-out: CSF to unbound plasma ratio based on Cmax): 0.18
Kp ([1]; male, Wistar Han, rat, brain/plasma, po, read-out: Brain to plasma ratio based on AUCInf): 0.6
Kp ([1]; male, Wistar Han, rat, brain/plasma, po, read-out: Brain to plasma ratio based on AUCLast): 0.6
Kp ([1]; male, Wistar Han, rat, brain/plasma, po, read-out: Brain to plasma ratio based on Cmax): 0.52
Cmax ([1]; male, Wistar Han, rat, plasma, po): 1140 ng/mL
AUC(0-inf) ([1]; male, Wistar Han, rat, plasma, po, read-out: AUCInf, plasma): 14100 ng·h/mL
AUC(0-t) ([1]; male, Wistar Han, rat, plasma, po, read-out: AUCLast, plasma): 14100 ng·h/mL
CSF to “unbound plasma” ratio ([2]; Arm A, 150 mg, day 11 of cycle 1, listed as Study drug): 0.33
Kp at 15 day ([2]; human, CSF / unbound plasma, 90 mg, Arm B, 90 mg daily, Week 3 day 1 (Day 15), read-out: CSF to “unbound plasma” ratio): 0.42
Kp at 11 day ([2]; human, CSF / unbound plasma, 150 mg, Arm A, 150 mg, day 11 of cycle 1, read-out: CSF to “unbound plasma” ratio): 0.35
Kp at 11 day ([2]; human, CSF / unbound plasma, 200 mg, Arm A, 200 mg, day 11 of cycle 1, read-out: CSF to “unbound plasma” ratio): 0.38
concentration at 15 day ([2]; human, CSF, 90 mg, Arm B, 90 mg daily, Week 3 day 1 (Day 15), read-out: CSF concentration): 21.3 nM
concentration at 15 day ([2]; human, CSF, 90 mg, Arm B, 90 mg daily, Week 3 day 1 (Day 15), read-out: Raw data concentration in CSF): 10.9 ng/mL
concentration at 11 day ([2]; human, CSF, 200 mg, Arm A, 200 mg, day 11 of cycle 1, read-out: CSF concentration): 19.8 nM
concentration at 11 day ([2]; human, CSF, 200 mg, Arm A, 200 mg, day 11 of cycle 1, read-out: Raw data concentration in CSF): 10.1 ng/mL
Kp ([2]; human, CSF/unbound plasma, 4 patients, Arms A and B, read-out: CSF/plasma ratio): 0.33 to 0.42
concentration at 15 day ([2]; human, plasma (unbound), 90 mg, Arm B, 90 mg daily, Week 3 day 1 (Day 15), read-out: Unbound plasma concentration): 50.3 nM
concentration at 11 day ([2]; human, plasma (unbound), 200 mg, Arm A, 200 mg, day 11 of cycle 1, read-out: Unbound plasma concentration): 52.4 nM
concentration at 15 day ([2]; human, plasma, 90 mg, Arm B, 90 mg daily, Week 3 day 1 (Day 15), read-out: Raw data concentration in plasma): 309 ng/mL
concentration at 11 day ([2]; human, plasma, 200 mg, Arm A, 200 mg, day 11 of cycle 1, read-out: Raw data concentration in plasma): 322 ng/mL
fraction unbound [3]: 0.078
